Measured values as given in patent US12161715B2, “EGFR targeted therapy” (priority 2011, dated 2024).

Test: Case 3: conventional drugs approved for neuropathic pain
Assay type: in vivo, human
Settings: failed back surgery syndrome; pregabalin follow-up 19 weeks

SMILES	NP response to conventional drug, Case 3
NCC1(CC(=O)O)CCCCC1 [gabapentin]	unsuccessfully treated
CC(C)C[C@H](CN)CC(=O)O [pregabalin]	responded
